Experimental data taken from EP1201238A1, “SULFONAMIDE DERIVATIVES AND REMEDIES FOR ALLODYNIA” (ONO PHARMACEUTICAL CO., LTD., priority 1999, dated 2001).

Legend:
Allodynia caused by PGE2 = test: inhibitory effect on allodynia caused by intrathecal injection of PGE2; type: in vivo, male ddY mice; conditions: for % of allodynia expression, Allodynia caused by PGE2: mixture of PGE2 (10ng/body) and compound (10ng/body) injected intrathecally, mice, touch-stimulus score 5 min after administration, 100% = all subjects score 2; for anti-allodynia effect (in words): summary of tables 1, 2 and 3 (PGE2- and PGF2α-induced allodynia, mice)
Procedure: (1) an inhibitory effect on allodynia caused by intrathecal injection of PGE2
(§1) Five or six male ddY mice weighing 22± 2 g in a group were used. Under non-anesthesia, the mixture (5µL) of PGE2 (10ng/body) and a compound (10ng/body) with 27-gauge was injected intrathecally with stainless injection needle (0.33 mm, o.d.) between fifth and sixth vertebra lumbar of a mouse, 5. min after administration, to tail from belly side of a mouse was touch-stimulated with brush and allodynia was evaluated by score.
(§2) Score is 0: no changed, 1: escaped from touch-stimulus and squeaked, 2: escaped vigorously from touch-stimulus and squeaked loudly. When All the subjects got score 2, it was evaluated as 100% of allodynia expression.
(§3) For example, When, in six mice, score 0 is one, score 1 is three and score 2 is two, % of allodynia expression is below: ((0×1) + (1×3) + (2×2))/(6×2)× 100 = 58. 3(%) [formula]

[1] = test system: Allodynia caused by PGF2α; test: inhibitory effect on allodynia caused by intrathecal injection of PGF2α; type: in vivo, male ddY mice; conditions: mixture of PGF2α (1µg/body) and compound (100ng/body) injected intrathecally, mice, touch-stimulus score 15min after administration
Procedure: as §1, §2, §3
(2) an inhibitory effect on allodynia caused by intrathecal injection of PGF2α
The experiment was the same as (1) with the exception that the mixture of PGF2α (1µg/body) and a compound (100ng/body) was used as administered drug and allodynia was evaluated at 15min after administration.

[2] = toxicity, maximal tolerated dose with oral administration; conditions: in vivo, rat
Procedure: The toxicity of the compounds of the present invention is very low and therefore the compounds may be considered safe for pharmaceutical use. For example, the maximal tolerated dose with oral administration of the compounds of formula (I), (IV) and (VI) was more than 2000 mg/kg in rat.

Row | SMILES | % of allodynia expression, Allodynia caused by PGE2 (Allodynia caused by PGE2) [%] | anti-allodynia effect (in words) (Allodynia caused by PGE2) | % of allodynia expression, Allodynia caused by PGF2α [1] [%] | MTD [2] [mg/kg]
1 | O=C(O)CCC/C=C\[C@H]1[C@H]2CC[C@H](C2)[C@@H]1CNS(=O)(=O)c1ccc(F)c(F)c1 [Formula(III), 6-[(1S,2S,3S,4R)-3-(3,4-difluorophenylsulfonylaminomethyl)bicyclo[2.2.1]heptan-2-yl]-5Z-hexenoic acid] | 0.0 ± 0.0 | effective | 8.3 ± 8.3 | 
2 | O=C(O)CCC/C=C\[C@H]1[C@@H]2CC[C@@H](C2)[C@@H]1CNS(=O)(=O)c1cc(F)ccc1F [Formula(IV), 6-[(1R,2S,3S,4S)-3-(2,5-difluorophenylsulfonylaminomethyl)bicyclo[2.2.1]heptan-2-yl]-5Z-hexenoic acid] | 8.3 ± 8.3 | effective | 0.0 ± 0.0 | > 2000
3 | O=C(O)CCC/C=C\[C@H]1[C@H]2CC[C@H](C2)[C@@H]1CNS(=O)(=O)c1ccccc1Cl [comparison compound 1, 6-[(1S,2S,3S,4R)-3-(2-chlorophenylsulfonylaminomethyl)bicyclo[2.2.1]heptan-2-yl]-5Z-hexenoic acid, reference compound] | 100 ± 0.0 | no effect | 91.7 ± 8.3 | 
4 | O=C(O)CCC/C=C\[C@H]1[C@@H]2CC[C@@H](C2)[C@@H]1CNS(=O)(=O)c1ccccc1I [comparison compound 2, 6-[(1R,2S,3S,4S)-3-(2-iodophenylsulfonylaminomethyl)bicyclo[2.2.1]heptan-2-yl]-5Z-hexenoic acid, reference compound] | 83.3 ± 10.5 |  |  | 
5 | O=C(O)CCC/C=C\[C@H]1[C@H]2CC[C@H](C2)[C@@H]1CNS(=O)(=O)c1c(Cl)cccc1Cl [comparison compound 3, 6-[(1S,2S,3S,4R)-3-(2,6-dichlorophenylsulfonylaminomethyl)bicyclo[2.2.1]heptan-2-yl]-5Z-hexenoic acid, reference compound] | 91.7 ± 8.3 | no effect |  | 
6 | O=C(O)CCC/C=C\[C@H]1[C@@H]2CC[C@@H](C2)[C@@H]1CNS(=O)(=O)c1ccc(F)c(F)c1 [comparison compound 4, 6-[(1R,2S,3S,4S)-3-(3,4-difluorophenylsulfonylaminomethyl)bicyclo[2.2.1]heptan-2-yl]-5Z-hexenoic acid, reference compound] | 75.0 ± 11.2 |  |  | 
7 | CC1(C)[C@H]2C[C@H](NS(=O)(=O)Cc3ccccc3)[C@@H](C/C=C\CCCC(=O)O)[C@@H]1C2 [comparison compound 5, 7-[(1S,2S,3S,5R)-3-benzylsulfonylamino-6,6-dimethylbicyclo[3.1.1]heptan-2-yl]-5Z-heptenoic acid, reference compound] | 83.3 ± 10.5 |  | 83.3 ± 10.5 | 
8 | O=C(O)CCC/C=C\C[C@H]1[C@@H]2CC[C@@H](C2)[C@@H]1NS(=O)(=O)c1ccccc1 [comparison compound 6, reference compound] | 90.0 ± 10.0 |  | 60.0 ± 10.0 | 
9 | O=C(O)CCC/C=C\[C@H]1[C@H]2CC[C@H](C2)[C@@H]1CNS(=O)(=O)c1ccccc1I [formula (I), 6-[(1S,2S,3S,4R)-3-(2-iodophenylsulfonylaminomethyl)bicyclo[2.2.1]heptan-2-yl]-5Z-hexenoic acid] | 8.3 ± 8.3 |  | 8.3 ± 8.3 | > 2000
10 | O=C(O)CCC/C=C\[C@H]1[C@H]2CC[C@H](C2)[C@@H]1CNS(=O)(=O)c1ccccc1F [formula (II), 6-[(1S,2S,3S,4R)-3-(2-fluorophenylsulfonylaminomethyl)bicyclo[2.2.1]heptan-2-yl]-5Z-hexenoic acid] | 0.0 ± 0.0 |  | 8.3 ± 8.3 | 
11 | COc1ccc(S(=O)(=O)N[C@H]2C[C@H]3C[C@@H]([C@@H]2C/C=C\CCCC(=O)O)C3(C)C)cc1 [formula (V), 7-[(1S,2S,3S,5R)-3-(4-methoxybenzenesulfonylamino)-6,6-dimethylbicyclo [3.1.1]heptan-2-yl]-5Z-heptenoic acid] | 8.3 ± 8.3 | have activity | 8.3 ± 8.3 | 
12 | CC1(C)[C@H]2C[C@H](NS(=O)(=O)c3ccccc3)[C@@H](C/C=C\CCCC(=O)O)[C@@H]1C2 [formula (VI), 7-[(1S,2S,3S,5R)-3-benzenesulfonylamino-6,6-dimethylbicyclo[3.1.1]heptan-2-yl]-5Z-heptenoic acid] | 8.3 ± 8.3 | have activity | 0.0 ± 0.0 | > 2000
